Assay results from patent US20210161994A1, “IMPLANTABLE DEVICE FOR THE DELIVERY OF OCTREOTIDE AND METHODS OF USE THEREOF” (Endo Pharmaceuticals Solutions Inc., priority 2008, published 2021).

Tests used:
[1] = Release rate of octreotide from polyurethane implantable devices; type: physicochemical; conditions: Tecophilic HP-60D-05, 5.5% EWC
Source text: (§1) Tables 2A-D show release rates of octreotide from three different classes of polyurethane compounds (Tecophilic®, Tecoflex® and Carbothane®). The release rates have been normalized to surface area of the implant, thereby adjusting for slight differences in the size of the various implantable devices. Octreotide is water-soluble as indicated by the Log P value; for the purposes of the data provided, a Log P value of greater than about 2.0 is considered to be not readily soluble in aqueous solution. The polyurethanes were selected to have varying affinities for water soluble active agents and varying flexibility (as indicated by the variation in flex modulus).
Polyurethanes are available or can be prepared, for example, with a range of EWCs or flex moduli (Table 2). Tables 2A-B show normalized release rates for various active ingredients from polyurethane compounds. Tables […] show the non-normalized release rates for the same active ingredients, together with implant composition.

[2] = Log P (partition coefficient); type: physicochemical
Source text: as §1
The solubility of an active agent in an aqueous environment can be measured and predicted based on its partition coefficient (defined as the ratio of concentration of compound in aqueous phase to the concentration in an immiscible solvent). The partition coefficient (P) is a measure of how well a substance partitions between a lipid (oil) and water. The measure of solubility based on P is often given as Log P. In general, solubility is determined by Log P and melting point (which is affected by the size and structure of the compounds). Typically, the lower the Log P value, the more soluble the compound is in water. […]

C[C@@H](O)[C@@H]1NC(=O)[C@H](CCCCN)NC(=O)[C@@H](Cc2c[nH]c3ccccc23)NC(=O)[C@H](Cc2ccccc2)NC(=O)[C@@H](NC(=O)[C@H](N)Cc2ccccc2)CSSC[C@@H](C(=O)N[C@H](CO)[C@@H](C)O)NC1=O [Octreotide Acetate]
non-normalized release rate [1]: 0
release rate normalized to surface area of the implant ([1]; 10% HPC, 2% SA, 50 mg API): 0
logP [2]: 0.43
